Data on 1 compound can be found in patent US8106063B2, “Pyrimidyl sulphone amide derivatives as chemokine receptor modulators” (AstraZeneca AB, priority 2002, dated 2012).

This experiment addresses T1, hrCXCR2 (Homo sapiens, UniProt P25025).
T1 construct: expressed in transfected cells; host or cells: HEK 293 cells (ECACC No. 85120602), membranes of the highest expressing clone
T1 sequence (P25025 1-360): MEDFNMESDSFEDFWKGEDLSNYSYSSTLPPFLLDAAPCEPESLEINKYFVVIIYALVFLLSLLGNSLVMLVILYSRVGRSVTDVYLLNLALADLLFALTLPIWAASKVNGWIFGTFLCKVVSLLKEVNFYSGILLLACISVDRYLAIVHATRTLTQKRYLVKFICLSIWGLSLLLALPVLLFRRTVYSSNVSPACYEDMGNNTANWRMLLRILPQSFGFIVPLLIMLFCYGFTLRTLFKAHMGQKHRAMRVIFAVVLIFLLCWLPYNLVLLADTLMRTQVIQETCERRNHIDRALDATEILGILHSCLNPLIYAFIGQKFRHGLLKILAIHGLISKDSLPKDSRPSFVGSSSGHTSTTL
The experiment is described as follows: Ligand binding assay ([125I]IL-8 binding to hrCXCR2 membranes). Conditions: ~50 pM [125I]IL-8, membranes of HEK 293 cells expressing hrCXCR2, 1.5 hours at room temperature.

The compound `Cc1cccc(CSc2nc(NC(C)(C)CO)cc(NS(C)(=O)=O)n2)c1F` [Example 116, N-{2-[(2-Fluoro-3-methylbenzyl)thio]-6-[(2-hydroxy-1,1-dimethylethyl)amino]-pyrimidin-4-yl}methanesulfonamide] showed an IC50 of 158 nM.

The term IC50 denotes the concentration that gives 50% inhibition.
